Data: US20150362481A1, “METHOD FOR THE IDENTIFICATION OF BITTER TASTING COMPOUNDS AND BITTER TASTE MODULATING COMPOUNDS” (Universitat Wien, priority 2013, published 2015)
Where “and” joins values, the source holds several entries; their conditions need not be identical. Equal entries are not always repeated.

Legend:
[1] = tested on: HGT-1 cells; assay: Proton secretion in HGT-1 cells after stimulation with bitter substances (intracellular pH, SNARF-1-AM); format: cell-based, human; details: 10 min stimulation, vs untreated cells
Protocol: The human gastric tumor cell line HGT-1 was used for all cell culture experiments. This cell line has been obtained from Dr. C. Laboisse (Laboratory of Pathological Anatomy, Nantes, France). The cells were cultured under standard conditions at 37° C., 95% humidity, and 5% CO2 in DMEM with 4 g/L glucose, 10% fetal bovine serum, 2% L-glutamine, and 1% penicillin/streptomycin. For the reverse transcription and the intracellular proton concentration assay, the cells were harvested using trypsin/EDTA. Cell viability has been determined using trypan blue staining for which the cells were seeded in a defined cell number in 35 mm dishes respectively in black 96-well plates. […] In a 96-well plate, a total of 100 000 HGT-1 cells were spread and allowed to settle for 24 h at 37° C., 95% humidity, and 5% CO2. Cells were washed once with Krebs-Ringer-HEPES buffer (KRHB), and incubated with the fluorescence dye SNARF-1-AM at a concentration of 3 μM for 30 min. […] As positive control, the cells were treated with 1 mM histamine. Fluorescence was analyzed at an excitation of 488 nm, whereas emission wavelengths were recorded at 580 nm and 640 nm on an Infinite 200 Pro plate reader. The ratio of the fluorescence intensities from those two emission wavelengths allows an accurate determination of pH when plotted on a calibration curve. […] The potassium buffer calibration solutions for the intracellular pH measurement consisted of 20 mM NaCl, 110 mM KCl, 1 mM CaCl2, 1 mM MgSO4, 18 mM D-glucose, and 20 mM HEPES. The pH calibration was fit to a linear regression. Intracellular proton concentration was calculated from the pH. The reduced amount of protons in the cell was calculated by log 2 transformation of the ratio between treated and untreated cells (control). The presented data is given as percent variation in comparison to untreated cells. […] Statistic: one-way Anova with post-hoc Test after Dunn's. Significant differences (p<0.05) are indicated by letters. […] Statistic: one-way Anova with post-hoc Test after Dunn's. Significant differences (p<0.05) are indicated by letters.

[2] = tested on: sensorically-trained expert panel; assay: Sensoric assessment: bitter-reduction of a bitter tasting solution; format: in vivo, human; parameters: key to Bitterness Bitter compound + Test substance: 1 = not bitter, 10 = extremely bitter; details: for Bitterness Bitter compound alone: scale 1 [not bitter] to 10 [extremely bitter]; for Bitterness Bitter compound + Test substance: scale 1 to 10
Protocol: For categorization of the bitter impression, a scale from 1 [not bitter] to 10 [extremely bitter] was used. For calculation of the percent reduction of bitter taste, the mean values of the rating of the expert panel for the solution of the bitter substance alone and the solution of the bitter substance in combination with the tested potential masking substance were compared. Significances were calculated using a paired, two sided student t-test and indicated by the p-values in Table 4.

[3] = tested on: HGT-1 cells; assay: Reduction of bitter substance induced proton secretion in HGT-1 cells by bitter-masking compounds; format: cell-based, human; details: 10 min
Protocol: The human gastric tumor cell line HGT-1 was used for all cell culture experiments. This cell line has been obtained from Dr. C. Laboisse (Laboratory of Pathological Anatomy, Nantes, France). The cells were cultured under standard conditions at 37° C., 95% humidity, and 5% CO2 in DMEM with 4 g/L glucose, 10% fetal bovine serum, 2% L-glutamine, and 1% penicillin/streptomycin. For the reverse transcription and the intracellular proton concentration assay, the cells were harvested using trypsin/EDTA. Cell viability has been determined using trypan blue staining for which the cells were seeded in a defined cell number in 35 mm dishes respectively in black 96-well plates. […] In a 96-well plate, a total of 100,000 HGT-1 cells were spread and allowed to settle for 24 h at 37° C., 95% humidity, and 5% CO2. Cells were washed once with KRHB and incubated with the fluorescence dye SNARF-1-AM at a concentration of 3 μM for 30 min. […] As positive control, the cells were treated with 1 mM histamine. Fluorescence was analyzed at an excitation of 488 nm and emission wavelengths were recorded at 580 nm and 640 nm on an Infinite 200 Pro plate reader. The ratio of the fluorescence intensities from those two emission wavelengths allows an accurate determination of pH when plotted on a calibration curve. […] The potassium buffer calibration solutions for the intracellular pH measurement consisted of 20 mM NaCl, 110 mM KCl, 1 mM CaCl2, 1 mM MgSO4, 18 mM D-glucose, and 20 mM HEPES. The pH calibration was fit to a linear regression curve. Intracellular proton concentration was calculated from the pH. The reduced amount of protons in the cell was calculated by log 2 transformation of the ratio between treated and untreated cells (control). The presented data is given as percent variation in comparison to untreated cells.

[4] = tested on: TAS2R10 "knockdown" HGT-1 cells; assay: Effect of caffeine on proton secretion in TAS2R10 siRNA knockdown HGT-1 cells; format: cell-based, human; details: 3 mM, 10 min
Protocol: The HiPerFect transfection reagent (Qiagen) was used to transfect small interfering RNA (siRNA), targeting specifically human TAS2R10 (5′-[…]-3′; Sigma-Aldrich) into HGT-1 cells for the specific reduction of TAS2R10 expression. Cells were grown to 50% confluence in serum containing DMEM-media and incubation for 48 h was started by addition of serum-free media containing siRNA targeted against TAS2R10 (final siRNA concentration 1 nM) and HiPerFect transfection reagent (1 μL/6 pmol siRNA). Unrelated non-silencing siRNA (Qiagen) was used as negative control and siRNA targeted against Mn/Hs_MAPK1 which is known to efficiently knocks down human MAPK1 (Qiagen) was used as positive control. A mock transfection, in which only the HiPerFect transfection reagent was tested, was also carried out to exclude the effects of the transfection reagent itself. The knockdown efficiency was controlled by measuring mRNA expression of TAS2R10 using RT-qPCR as explained in example 1.
Statistics: two-way ANOVA with Student-Newman-Keuls post-hoc test, data shown as mean±SEM, n=3, tr=6.

[5] = caffeine 500 ppm + test compound 100 ppm
[6] = theobromine 300 ppm + test compound 100 ppm
[7] = 0.3 mM theobromine + 0.03 mM test compound
[8] = 0.3 mM theobromine + 0.3 mM test compound
[9] = 3 mM caffeine + 0.03 mM test compound
[10] = 3 mM caffeine + 0.3 mM test compound
[11] = caffeine 500 ppm + test compound 25 ppm
[12] = theobromine 300 ppm + test compound 25 ppm

**Q.** Which “Proton secretion T/C [%]” value ([1]; 0.03 μM) does the source give for `Cn1cnc2c1c(=O)[nH]c(=O)n2C` [Theobromine, theobromine] here?
**A.** 3.71%

**Q.** And the “Proton secretion T/C [%]” value ([1]; 0.3 μM)?
**A.** 17.71%

**Q.** What about the “Proton secretion T/C [%]” value ([1]; 3 μM) of the same compound?
**A.** 43.16%

**Q.** What about the “Proton secretion T/C [%]” value ([1]; 30 μM) of the same compound?
**A.** 44.88%

**Q.** And the “Proton secretion T/C [%]” value ([1]; 300 μM)?
**A.** 57.2%

**Q.** And the “Bitterness Bitter compound alone” value ([2]; 300 ppm)?
**A.** 3.8 ± 1.8 and 4.5 ± 2.01 and 4.2 ± 1.65 and 4.3 ± 1.8

**Q.** For `COc1cc([C@@H]2CC(=O)c3c(O)cc(O)cc3O2)ccc1O` [Homoeriodictyol, homoeriodictyol], which “% Reduction of the Bitter impression” value [2, 5] is on record?
**A.** 28%

**Q.** And the “Bitterness Bitter compound + Test substance” value [2, 5]?
**A.** 4.5 ± 1.4

**Q.** And the “% Reduction of the Bitter impression” value [2, 6]?
**A.** 12.5%

**Q.** What about the “Bitterness Bitter compound + Test substance” value [2, 6] of the same compound?
**A.** 3.7 ± 1.3

**Q.** And the “Percent increase in proton secretion T/C [%]” value (shortened to “Percent increase … [%]”) ([3]; 0.3 mM theobromine + 0.003 mM test compound)?
**A.** 21.56%

**Q.** What about the “Percent increase … [%]” value [3, 7] of the same compound?
**A.** 13.79%

**Q.** What about the “Percent increase … [%]” value [3, 8] of the same compound?
**A.** −16.92%

**Q.** What about the “Percent increase … [%]” value [3, 9] of the same compound?
**A.** 37.99%

**Q.** What about the “Percent increase … [%]” value [3, 10] of the same compound?
**A.** 20.18%

**Q.** With `COc1cc(C[C@H]2CO[C@H](c3ccc(O)c(OC)c3)[C@H]2CO)ccc1O` [Lariciresinol, lariciresinol] as the compound, how does the “% Reduction of the Bitter impression” value [2, 11] read?
**A.** 38.6%

**Q.** And the “Bitterness Bitter compound + Test substance” value [2, 11]?
**A.** 2.9 ± 1.41

**Q.** What about the “% Reduction of the Bitter impression” value [2, 12] of the same compound?
**A.** 10.7%

**Q.** What about the “Bitterness Bitter compound + Test substance” value [2, 12] of the same compound?
**A.** 3.7 ± 2.24

**Q.** What about the “Percent increase … [%]” value [3, 7] of the same compound?
**A.** 31.73%

**Q.** What about the “Percent increase … [%]” value [3, 8] of the same compound?
**A.** 17.55%

**Q.** What about the “Percent increase … [%]” value [3, 9] of the same compound?
**A.** 46.40%

**Q.** What about the “Percent increase … [%]” value [3, 10] of the same compound?
**A.** 21.57%

**Q.** With `Cn1c(=O)c2c(ncn2C)n(C)c1=O` [Caffeine, caffeine] as the compound, how does the “Proton secretion T/C [%]” value ([1]; 0.3 μM) read?
**A.** 25.49%

**Q.** And the “Proton secretion T/C [%]” value ([1]; 3 μM)?
**A.** 14.74%

**Q.** And the “Proton secretion T/C [%]” value ([1]; 30 μM)?
**A.** 23.43%

**Q.** And the “Proton secretion T/C [%]” value ([1]; 300 μM)?
**A.** 17.07%

**Q.** And the “Proton secretion T/C [%]” value ([1]; 3000 μM)?
**A.** 40.97%

**Q.** What about the “Bitterness Bitter compound alone” value ([2]; 500 ppm) of the same compound?
**A.** 6.7 ± 1.1 and 4.1 ± 0.9 and 6.3 ± 1.4

**Q.** What about the “Percent increase … [%]” value ([3]; 3 mM caffeine alone) of the same compound?
**A.** 54.79% and 54.05% and 38.75% and 52.41%

**Q.** And the “Percent effect on proton secretion T/C [%]” value (shortened to “Percent effect … [%]”) ([4]; mock transfected cells)?
**A.** 52.80%

**Q.** What about the “Percent effect … [%]” value ([4]; not transfected cells) of the same compound?
**A.** 48.80%

**Q.** And the “Percent effect … [%]” value ([4]; siRNA TAS2R10 knockdown cells)?
**A.** 28.58%

**Q.** `NCCc1c[nH]cn1` [Histamine, histamine] was tested. Which “Proton secretion T/C [%]” value ([1]; 1 mM) did it give?
**A.** 36.66% and 45.70%

**Q.** What does the source list for `COc1cc(C[C@H]2COC(=O)[C@@H]2Cc2ccc(O)c(OC)c2)ccc1O` [Matairesinol, matairesinol]?
**A.** % Reduction of the Bitter impression [2, 11]: 35.5%; Bitterness Bitter compound + Test substance [2, 11]: 2.7 ± 1.77; % Reduction of the Bitter impression [2, 12]: 24.7%; Bitterness Bitter compound + Test substance [2, 12]: 3.4 ± 1.49; Percent increase in proton secretion T/C [%] [3, 7]: 23.41%; Percent increase in proton secretion T/C [%] [3, 8]: −18.25%; Percent increase in proton secretion T/C [%] [3, 9]: 14.39%; Percent increase in proton secretion T/C [%] [3, 10]: −20.43%

**Q.** `O=C1C[C@@H](c2ccc(O)c(O)c2)Oc2cc(O)cc(O)c21` [Eriodictyol, eriodictyol] was tested. Which “% Reduction of the Bitter impression” value [2, 5] did it give?
**A.** 47%

**Q.** And the “Bitterness Bitter compound + Test substance” value [2, 5]?
**A.** 3.5 ± 0.7

**Q.** What about the “% Reduction of the Bitter impression” value [2, 6] of the same compound?
**A.** 36%

**Q.** What about the “Bitterness Bitter compound + Test substance” value [2, 6] of the same compound?
**A.** 2.4 ± 1.2

**Q.** What about the “Percent increase … [%]” value [3, 7] of the same compound?
**A.** 23.95%

**Q.** What about the “Percent increase … [%]” value [3, 8] of the same compound?
**A.** −42.86%

**Q.** And the “Percent increase … [%]” value [3, 9]?
**A.** 29.69%

**Q.** What about the “Percent increase … [%]” value [3, 10] of the same compound?
**A.** −33.96%
